# Experiments:
# [1] = biological target: T1, GAL4-NR4A1 (Homo sapiens, UniProt P22736); test: Luciferase assay, GAL4-NR4A1 chimera/UAS-luc in ESECT-7 cells; format: cell-based; settings: ESECT-7 cells transfected with GAL4-NR4A1 chimera/UAS-luc; 18 hr treatment; FIG. 2A
# T1 construct: GAL4 (fusion partner); expressed in transfected cells; host or cells: ESECT-7 patient-derived endometriotic cells
# Protocol: (§1) Luciferase assay: ESECT-7 and ESECT-40 cells were plated on 12-well plates in DMEM/F12 supplemented with 2.5% charcoal-stripped FBS. After overnight attachment and growth, various amounts of DNA [i.e., UASx5-Luc (500 ng), GAL4-NR4A1 (50 ng), NBREx3-Luc (800 ng), NurREx3-Luc (800 ng) and Flag-NR4A1 (80 ng)] were co-transfected into each well using Lipofectamine 2000 reagent (Invitrogen, Carlsbad, CA) according to the manufacturer's protocol. After 6 hr of transfection, cells were treated with plating medium (as above) containing either solvent (DMSO) or indicated concentrations of the compound for 18 hr. Cells were then lysed and cell extracts were used for chemiluminescence quantification of luciferase activity. Luciferase activity values were normalized against corresponding protein concentration values determined by Bradford assay. Both GAL4- and Flag-NR4A1 constructs contain full-length NR4A1 coding sequence and all the plasmids used in this study were previously described.
# [2] = biological target: T2, NR4A1 (Homo sapiens, UniProt P22736); test: Luciferase assay, NR4A1/NBRE-luc in ESECT-7 cells; format: cell-based; settings: ESECT-7 cells transfected with NR4A1/NBRE-luc; 18 hr treatment; FIG. 2A
# T2 construct: expressed in transfected cells; host or cells: ESECT-7 patient-derived endometriotic cells
# Protocol: as §1
# [3] = system: NEM cells; test: Cell growth, normal endometrial NEM cells; format: cell-based, human; settings: 24 hr; 15-25 μM DIM-C-pPhOH, 5-10 μM DIM-C-pPhOH-3-Cl-5-OCH3; vs DMSO control; FIG. 4A
# Protocol: (§2) Primary human endometriotic stromal cells from endometriosis patients: Ovarian endometrioma were isolated from endometriosis patients in the proliferative phase following the IRB-approved protocol. Isolated ectopic lesions were digested with collagenase type 3 (300 μg/ml) and DNaseI (40 μg/ml) for 90 min at 37° C., and then tissues were filtered through 150, 100, and 40 μm sieves to isolate endometrial stromal cells. The collected endometrial stromal cells were cultured in DMEM/F12 with 10% FBS plus 1× antibiotic/antimycotic solution and then validated by flow cytometry with a CD90 antibody (a mesenchymal marker). Henceforth, we refer to the stromal cells as ectopic endometrium isolated ovarian endometrioma (ESECT). As the control, primary normal endometrial stromal cells isolated from the biopsy of the eutopic endometrium of normal women (NEM) in the proliferative phase. All cells were incubated at 37° C. in CO2 incubator in an atmosphere of humidified 5% CO2 and 95% air.
# (§3) Cell proliferation assay: Patient-derived endometriotic cells ESECT-7 and ESECT-40 were seeded into a 96-well plate, and the cells were then treated for 24 hr with either DMSO or different concentrations of DIM-C-pPhOH and DIM-C-pPhOH-3-Cl-5-OCH3. […] Dimethyl sulfoxide (DMSO) was added and incubated at […] for 10 min, and absorbance was measured at 570 nm.
# [4] = system: NEM cells; test: Western blotting of growth promoting and proapoptotic gene products, NEM cells; format: cell-based, human
# [5] = system: ESECT-7 cells; test: Cell proliferation assay (MTT), ESECT-7; format: cell-based, human; settings: 24 hr; 5-10 μM DIM-C-pPhOH-3-Cl-5-OCH3, 15-25 μM DIM-C-pPhOH; FIG. 2C
# Protocol: as §2, §3
# [6] = system: ESECT-7 cells; test: Annexin V staining, ESECT-7; format: cell-based, human; settings: 10 μM DIM-C-pPhOH-3-Cl-5-OCH3, 25 μM DIM-C-pPhOH, FIG. 3A
# Protocol: (§4) Annexin V staining: ESECT-7 and ESECT-40 cells were seeded in Nunc chambered cover glass followed by various drug treatments. The cells were then washed with ice-cold PBS, and 5 μL Alexa Fluor® 488 Annexin V with 100 μg/mL PI (as per the manufacturer's instructions) were added to the cells and incubated for 15 min, and the cells were observed using a Zeiss confocal fluorescence microscope.
# [7] = system: ESECT-7 cells; test: α-SMA immunofluorescence, ESECT-7; format: cell-based, human; settings: vs control, FIG. 5A
# Protocol: Immunofluorescence: ESECT-7 and ESECT-40 cells were seeded in Nunc chambered cover-glass followed by various drug treatments. The cells were fixed with 4% paraformaldehyde in PBS for 20 minutes at 37° C. Cells were then blocked and incubated overnight with primary α-SMA antibody in the buffer (5% bovine serum albumin in PBS) at 4° C., followed by incubation with Alexa Fluor conjugated secondary antibody at a dilution of 1:250 for 2 hours at room temperature. Finally, cells were observed using a Zeiss confocal fluorescence microscope.
# [8] = system: IHEECs; test: Expression of fibrosis markers in IHEECs; format: cell-based, human; settings: 24 hours, vs control, FIG. 6B
# [9] = system: ESECT-7 cells; test: Quantitative real-time PCR of fibrosis markers, ESECT-7; format: cell-based, human; settings: 24 hours, 20-25 μM DIM-C-pPhOH, 5-10 μM DIM-C-pPhOH-3-Cl-5-OCH3, vs DMSO control, FIG. 5C
# Protocol: Quantitative real-time PCR: Total RNA was isolated from cultured cells according to the manufacturer's instructions (Zymo Research, Irvine, CA). The concentration and purity of the RNA samples were determined using a nanodrop spectrophotometer. Total RNA was reverse transcribed using iTaq Universal SYBR Green One-Step Kit (Thermo Fisher Scientific, Grand Island, NY) using the manufacturer's protocol with the CFX384 real-time PCR System (Bio-Rad). The comparative cycle threshold method was used for relative quantitation of samples. Values for each gene were normalized to expression levels of TATA-binding protein. The sequences of the primers used for real-time PCR included the following: α-SMA, 5′-GGCCGAGATCTCACTGACTAC-3′ (sense, SEQ ID NO. 13) and 5′-TTC ATG GAT GCC AGC AGA-3′ (antisense, SEQ ID NO. 14); COL1A1, 5′-CAG CCG CTT CAC CTA CAG C-3′ (sense, SEQ ID NO. 15) and 5′-TTTTGTATTCAATCAGTGTCTTGCC-3′ (antisense, SEQ ID NO. 16); CTGF, 5′-TTGGCCCAGACCCAACTATG-3′(sense, SEQ ID NO. 17) and 5′-CAGGAGGCGTTGTCATTGGT-3′ (antisense, SEQ ID NO. 18); FN, 5′-GGG AGC CTC GAA GAG C-3′ (sense 19) and 5′-AACAAGTACAAACCAACGCA-3′ (antisense, SEQ ID NO. 20) and TATA-binding protein, 5′-GATCAGAACAACAGCCTGCC-3′ (sense, SEQ ID NO. 21) and 5′-TTCTGAATAGGCTGTGGGGT-3′ […].
# [10] = system: NEM cells; test: Annexin V staining, NEM cells; format: cell-based, human; settings: 25 μM DIM-C-pPhOH, 10 μM DIM-C-pPhOH-3-Cl-5-OCH3, vs DMSO control, FIG. 4C
# [11] = system: ESECT-40 cells; test: Annexin V staining, ESECT-40; format: cell-based, human; settings: 10 μM DIM-C-pPhOH-3-Cl-5-OCH3, 25 μM DIM-C-pPhOH, FIG. 3B
# Protocol: as §4
# [12] = system: Ishikawa cells; test: Expression of fibrosis markers in Ishikawa cells; format: cell-based; settings: 24 hours, FIG. 6D
# [13] = system: ESECT-40 cells; test: Cell proliferation assay (MTT), ESECT-40; format: cell-based, human; settings: 24 hr; 5-10 μM DIM-C-pPhOH-3-Cl-5-OCH3, 15-25 μM DIM-C-pPhOH; FIG. 2C
# Protocol: as §2, §3
# [14] = biological target: T3, NR4A1 (Mus musculus, UniProt P12813); settings: C2C12 muscle cells; cited from earlier work
# T3 construct: endogenous in cells; host or cells: C2C12 muscle cells
# [15] = system: NESC and EESC cells; settings: Zeng et al. 2018; cited from earlier work
# T2 sequence (P22736 whole entry, species assumed): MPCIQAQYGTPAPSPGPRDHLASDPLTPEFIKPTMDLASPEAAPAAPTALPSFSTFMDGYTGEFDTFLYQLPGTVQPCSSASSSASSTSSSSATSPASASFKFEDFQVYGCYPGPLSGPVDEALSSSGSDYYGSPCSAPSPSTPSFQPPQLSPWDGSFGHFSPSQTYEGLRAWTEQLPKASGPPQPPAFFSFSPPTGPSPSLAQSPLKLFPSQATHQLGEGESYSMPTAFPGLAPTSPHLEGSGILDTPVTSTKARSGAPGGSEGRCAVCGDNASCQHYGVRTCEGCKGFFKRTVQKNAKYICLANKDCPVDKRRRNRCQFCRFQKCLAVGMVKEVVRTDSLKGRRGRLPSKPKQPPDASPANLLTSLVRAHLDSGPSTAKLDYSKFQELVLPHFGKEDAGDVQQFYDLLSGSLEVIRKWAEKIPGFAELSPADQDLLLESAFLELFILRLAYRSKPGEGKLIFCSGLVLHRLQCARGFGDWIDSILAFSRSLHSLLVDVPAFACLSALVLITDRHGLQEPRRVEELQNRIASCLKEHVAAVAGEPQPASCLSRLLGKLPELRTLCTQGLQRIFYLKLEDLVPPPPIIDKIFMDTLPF
# T1 sequence (P22736 with tags, fused parts or gaps): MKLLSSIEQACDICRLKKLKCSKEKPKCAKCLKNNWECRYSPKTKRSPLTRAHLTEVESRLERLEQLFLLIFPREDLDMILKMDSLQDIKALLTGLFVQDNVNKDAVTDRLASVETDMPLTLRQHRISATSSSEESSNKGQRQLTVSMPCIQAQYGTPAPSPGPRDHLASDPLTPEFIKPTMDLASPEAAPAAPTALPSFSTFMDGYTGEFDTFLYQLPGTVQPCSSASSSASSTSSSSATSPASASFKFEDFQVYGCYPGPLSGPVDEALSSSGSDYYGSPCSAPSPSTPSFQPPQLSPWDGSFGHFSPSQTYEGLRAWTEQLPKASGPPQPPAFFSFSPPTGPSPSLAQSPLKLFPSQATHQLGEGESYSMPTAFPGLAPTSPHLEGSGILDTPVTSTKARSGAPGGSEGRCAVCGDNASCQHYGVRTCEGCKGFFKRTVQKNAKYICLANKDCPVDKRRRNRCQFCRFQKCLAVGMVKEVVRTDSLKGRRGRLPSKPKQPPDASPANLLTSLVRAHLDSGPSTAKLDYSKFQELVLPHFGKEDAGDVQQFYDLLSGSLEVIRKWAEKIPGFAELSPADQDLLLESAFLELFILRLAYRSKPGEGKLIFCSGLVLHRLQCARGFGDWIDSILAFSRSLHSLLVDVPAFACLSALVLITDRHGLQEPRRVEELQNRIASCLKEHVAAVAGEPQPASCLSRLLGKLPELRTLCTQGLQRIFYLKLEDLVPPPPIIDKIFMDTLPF
# T3 sequence (P12813 whole entry): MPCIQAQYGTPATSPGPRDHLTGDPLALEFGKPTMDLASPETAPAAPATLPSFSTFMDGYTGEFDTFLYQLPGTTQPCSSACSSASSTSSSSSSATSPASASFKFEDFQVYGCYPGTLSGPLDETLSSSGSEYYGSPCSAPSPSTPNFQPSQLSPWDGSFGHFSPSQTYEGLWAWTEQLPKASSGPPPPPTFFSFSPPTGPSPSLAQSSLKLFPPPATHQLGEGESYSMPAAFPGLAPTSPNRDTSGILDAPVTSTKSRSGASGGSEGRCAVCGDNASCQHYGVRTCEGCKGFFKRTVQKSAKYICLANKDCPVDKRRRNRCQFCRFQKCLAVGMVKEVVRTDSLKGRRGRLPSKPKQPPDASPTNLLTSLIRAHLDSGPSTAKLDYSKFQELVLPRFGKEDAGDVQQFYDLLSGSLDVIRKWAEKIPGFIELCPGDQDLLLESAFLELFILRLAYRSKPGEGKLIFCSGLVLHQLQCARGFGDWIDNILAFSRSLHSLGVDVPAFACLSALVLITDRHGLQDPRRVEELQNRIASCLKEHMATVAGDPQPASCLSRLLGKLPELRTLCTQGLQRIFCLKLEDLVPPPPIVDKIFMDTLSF
smiles,measurement,setting,value
"Oc1c(Br)cc(C(c2c[nH]c3ccccc23)c2c[nH]c3ccccc23)cc1Br [4-OH-3,5-Br2]",intrinsic transcriptional activity of GAL4-NR4A1,[1],inhibited the intrinsic transcriptional activity
same,intrinsic transcriptional activity of NR4A1,[2],inhibited the intrinsic transcriptional activity
"Oc1ccc(C(c2c[nH]c3ccccc23)c2c[nH]c3ccccc23)cc1Cl [4-OH-3-Cl, 1,1-bis(3′-indolyl)-1-(3-chloro-4-hydroxyphenyl)methane]",intrinsic transcriptional activity of GAL4-NR4A1,[1],inhibited the intrinsic transcriptional activity
same,intrinsic transcriptional activity of NR4A1,[2],inhibited the intrinsic transcriptional activity
"Oc1ccc(C(c2c[nH]c3ccccc23)c2c[nH]c3ccccc23)cc1 [DIM-C-pPhOH, 1,1-bis(3′-indolyl)-1-(p-hydroxyphenyl)methane]",growth of normal endometrial NEM cells,[3],did not suppress the growth
same,levels of the cleaved form of PARP and Bax,"[4]; 25 μM DIM-C-pPhOH, 10 μM DIM-C-pPhOH-3-Cl-5-OCH3, vs DMSO control, FIG. 4D",did not enhance
same,cMyc and EGFR expression,"[4]; 15-25 μM DIM-C-pPhOH, 5-10 μM DIM-C-pPhOH-3-Cl-5-OCH3, vs DMSO control, FIG. 4B",did not decrease
same,growth of ESECT-7 cells,[5],inhibited cell growth
same,Annexin V staining (apoptosis),[6],induced apoptosis
same,expression of SMA levels,[7],decreased expression of SMA levels
same,intrinsic transcriptional activity of GAL4-NR4A1,[1],inhibited the intrinsic transcriptional activity
same,"expression of fibrosis markers (α-SMA, COL1A1, FN, CTGF)",[8],decreased expression of fibrosis markers
same,"mRNA levels of fibrosis markers (FN, Col1A1, CTGF)",[9],decreased mRNA levels
same,Annexin V staining,[10],did not enhance
same,Annexin V staining (apoptosis),[11],induced apoptosis
same,intrinsic transcriptional activity of NR4A1,[2],inhibited the intrinsic transcriptional activity
same,"expression of fibrosis markers (α-SMA, COL1A1, FN, CTGF)",[12],decreased expression of fibrosis markers
same,growth of ESECT-40 cells,[13],inhibited cell growth
same,"NR4A1 agonist activity, induction of genes involved in glucose uptake",[14],worked as NR4A1 agonists
CCCCCCCC(=O)c1c(O)cc(O)cc1CC(=O)OCC [cytosporone β],TGFβ-induced fibrosis,[15],inhibited TGFβ-induced fibrosis

# — patent US12622892B2, “Methods for treating endometriosis” (THE TEXAS A&M UNIVERSITY SYSTEM, priority 2020, dated 2026)
